Source: patent US20100256177A1, “Flavopereirine derivatives for cancer therapy” (priority 2004, published 2010)
Values after ≈ are worked out from the molar mass of the structure shown.

Legend:
Format in all cases: cell-based
[1] = test system: SW620 (colon) human tumor cell line; assay: three day MTT cytotoxicity assay, SW620 colon; details: 72 hours; for IC50 (μg/mL) of Flavoperereine derivatives in human tumor cell lines, SW620 Colon: SW620 colon cells
Protocol: (§1) A number of the Flavopereirine derivatives were tested for cytotoxicity against nine (9) human tumor cell lines. Briefly, a three day MTT cytotoxicity assay was performed, which is based on the principle of uptake of MTT (3-(4,5-dimethylthiazol-2-yl)-2,5-diphenyl tetrazolium bromide), a tetrazolium salt, by the metabolically active cells where it is metabolized by active mitochondria into a blue colored formazan product that is read spectrophotometrically. MIT was dissolved in phosphate buffered saline with a pH of 7.4 to obtain an MTT concentration of 5 mg/ml; the resulting mixture was filtered through a 0.22-micron filter to sterilize and remove a small amount of insoluble residue. For each type of tumor cell, 10000 to 15000 cells were seeded in a 96-well culture plate and incubated with the individual Flavopereirine derivatives in concentration ranging from 1-20 μg/ml in a CO2 incubator for a total of 72 hours. Control cells not treated with the Flavopereirine derivatives were similarly incubated. The assay was terminated by adding 100 μg (20 μl) of MTT to each well, then incubating for additional one hour, and finally adding 50 μl of 10% SDS-0.01N HCl to each well to lyse the cells and dissolve formazan. After incubating for one hour, the plate was read spectrophotometrically at 540 nm and the percentage of cytotoxicity calculated using the following formula:
(§2) Cytotoxicity percentage=100×[1-(X/R1)], where X=(absorbance of treated sample at 540 nm)−(absorbance of blank at 540 nm) R1=absorbance of control sample at 540 nm.
(§3) The IC50 Values of the cytotoxicity defined as the concentration at which 50% of the cells are killed in vitro was calculated for each cell line treated with each of the Flavopereirine derivatives.
(§4) The cell lines are ovary (PA-1), breast (MCF-7), prostate (DU145), pancreas (MiaPaCa.2), oral cavity (KB), lung (L132), colon (SW620), and larynx (HeP2).

[2] = test system: Hep2 (larynx) human tumor cell line; assay: three day MTT cytotoxicity assay, Hep2 larynx; details: 72 hours; for IC50 (μg/mL) of Flavoperereine derivatives in human tumor cell lines, Hep2 Larynx: Hep2 larynx cells
Protocol: as §1, §2, §3, §4

[3] = test system: MiaPaca2 (pancreas) human tumor cell line; assay: three day MTT cytotoxicity assay, MiaPaca2 pancreas; details: 72 hours; for IC50 (μg/mL) of Flavoperereine derivatives in human tumor cell lines, MiaPaca2 Pancreas: MiaPaca2 pancreas cells
Protocol: as §1, §2, §3, §4

[4] = test system: KB (oral cavity) human tumor cell line; assay: three day MTT cytotoxicity assay, KB oral; details: KB oral cells, 72 hours
Protocol: as §1, §2, §3, §4

[5] = test system: MCF7 (breast) human tumor cell line; assay: three day MTT cytotoxicity assay, MCF7 breast; details: MCF7 breast cells, 72 hours
Protocol: as §1, §2, §3, §4

[6] = test system: DU145 (prostate) human tumor cell line; assay: three day MTT cytotoxicity assay, DU145 prostate; details: 72 hours; for IC50 (μg/mL) of Flavoperereine derivatives in human tumor cell lines, DU145 Prostate: DU145 prostate cells
Protocol: as §1, §2, §3, §4

[7] = test system: PA1 (ovary) human tumor cell line; assay: three day MTT cytotoxicity assay, PA1 ovarian; details: PA1 ovarian cells, 72 hours
Protocol: as §1, §2, §3, §4

[8] = test system: L132 (lung) human tumor cell line; assay: three day MTT cytotoxicity assay, L132 lung; details: L132 lung cells, 72 hours
Protocol: as §1, §2, §3, §4

[9] = test system: ECV-304 (endothelial) cell line; assay: three day MTT cytotoxicity assay, ECV-304 endothelial; details: ECV-304 endothelial cells, 72 hours
Protocol: as §1, §2, §3

Row | Compound | IC50 (μg/mL) of Flavoperereine derivatives in human tumor cell lines, SW620 Colon [1] | IC50 (μg/mL) of Flavoperereine derivatives in human tumor cell lines, Hep2 Larynx [2] | IC50 (μg/mL) of Flavoperereine derivatives in human tumor cell lines, MiaPaca2 Pancreas [3] | IC50 (μg/mL) of Flavoperereine derivatives in human tumor cell lines, KB Oral [4] | IC50 (μg/mL) of Flavoperereine derivatives in human tumor cell lines, MCF7 Breast [5] | IC50 (μg/mL) of Flavoperereine derivatives in human tumor cell lines, DU145 Prostate [6] | IC50 (μg/mL) of Flavoperereine derivatives in human tumor cell lines, PA1 Ovarian [7] | IC50 (μg/mL) of Flavoperereine derivatives in human tumor cell lines, L132 Lung [8] | IC50 ([1]; Homo sapiens, SW-620, SW620 colon cells, read-out: IC50 (μg/mL) of Flavoperereine derivatives in human tumor cell lines, SW620 Colon) | IC50 ([2]; Homo sapiens, HEp-2, Hep2 larynx cells, read-out: IC50 (μg/mL) of Flavoperereine derivatives in human tumor cell lines, Hep2 Larynx) | IC50 ([3]; Homo sapiens, MIA PaCa-2, MiaPaca2 pancreas cells, read-out: IC50 (μg/mL) of Flavoperereine derivatives in human tumor cell lines, MiaPaca2 Pancreas) | IC50 ([4]; Homo sapiens, read-out: IC50 (μg/mL) of Flavoperereine derivatives in human tumor cell lines, KB Oral) | IC50 ([9]; Homo sapiens, read-out: IC50 (μg/mL) of Flavoperereine derivatives in human tumor cell lines, ECV-304 Endothelial) | IC50 ([5]; Homo sapiens, read-out: IC50 (μg/mL) of Flavoperereine derivatives in human tumor cell lines, MCF7 Breast) | IC50 ([6]; Homo sapiens, DU-145, DU145 prostate cells, read-out: IC50 (μg/mL) of Flavoperereine derivatives in human tumor cell lines, DU145 Prostate) | IC50 ([7]; Homo sapiens, read-out: IC50 (μg/mL) of Flavoperereine derivatives in human tumor cell lines, PA1 Ovarian) | IC50 ([8]; Homo sapiens, read-out: IC50 (μg/mL) of Flavoperereine derivatives in human tumor cell lines, L132 Lung) | IC50 (μg/mL) of Flavoperereine derivatives in human tumor cell lines, ECV-304 Endothelial [9]
1 | Oc1ccc2[n+](c1)CCc1c-2[nH]c2ccccc12 [Compound 22, 3-hydroxy-6,7-dihydroindolo[2,3-a]quinolizinium] | >100 µg/mL | >100 µg/mL | >100 µg/mL | >100 µg/mL | >100 µg/mL | >100 µg/mL | >100 µg/mL | >100 µg/mL | – | – | – | – | – | – | – | – | – | –
2 | C1=CC2=C3N=c4ccccc4=C3CCN2C=C1OCc1ccccc1 [Compound 23, 3-benzyloxy-6,7-dihydroindolo[2,3-a]quinolizine] | – | – | – | – | – | – | – | – | 11 µg/mL (≈ 33.7 µM) | 17 µg/mL (≈ 52.1 µM) | 10 µg/mL (≈ 30.6 µM) | 12 µg/mL (≈ 36.8 µM) | 16 µg/mL (≈ 49 µM) | 5 µg/mL (≈ 15.3 µM) | 10 µg/mL (≈ 30.6 µM) | 31 µg/mL (≈ 95 µM) | 20 µg/mL (≈ 61.3 µM) | –
3 | CCOc1ccc2[n+](c1)CCc1c-2[nH]c2ccccc12 [Compound 24, 3-ethoxy-6,7-dihydroindolo[2,3-a]quinolizinium] | 30 µg/mL | 89 µg/mL | – | 50 µg/mL | – | – | 38 µg/mL | 20 µg/mL | – | – | – | – | – | – | – | – | – | 64 µg/mL
4 | Fc1ccc(COc2ccc3[n+](c2)CCc2c-3[nH]c3ccccc23)cc1.[O-][Cl+3]([O-])([O-])[O-] [Compound 25] | 44 µg/mL | 44 µg/mL | 30 µg/mL | 8 µg/mL | 34 µg/mL | 41 µg/mL | 36 µg/mL | 9 µg/mL | – | – | – | – | – | – | – | – | – | 24 µg/mL
5 | Brc1ccc(COc2ccc3[n+](c2)CCc2c-3[nH]c3ccccc23)cc1.[Br-] [Compound 26] | >100 µg/mL | 24 µg/mL | 9.5 µg/mL | 6 µg/mL | >100 µg/mL | 7.5 µg/mL | >100 µg/mL | – | – | – | – | – | – | – | – | – | – | 12 µg/mL
6 | CCCCOc1ccc2[n+](c1)CCc1c-2[nH]c2ccccc12.[Br-] [Compound 27] | 4 µg/mL | 5 µg/mL | 7.5 µg/mL | 7 µg/mL | 6 µg/mL | 9 µg/mL | 4.7 µg/mL | – | – | – | – | – | – | – | – | – | – | –
7 | c1ccc(COc2ccc3c4[nH]c5ccccc5c4cc[n+]3c2)cc1 [Compound 28, 3-benzyloxyindolo[2,3-a]quinolizinium] | <1 µg/mL | 1.5 µg/mL | 2 µg/mL | 2 µg/mL | 5 µg/mL | 2 µg/mL | 1.5 µg/mL | 2 µg/mL | – | – | – | – | – | – | – | – | – | 4 µg/mL
8 | CCOc1ccc2c3[nH]c4ccccc4c3cc[n+]2c1 [Compound 29, 3-ethoxyindolor-2,3-alquinolizinium] | 10 µg/mL | 8.0 µg/mL | – | 10 µg/mL | – | – | 5 µg/mL | 15 µg/mL | – | – | – | – | – | – | – | – | – | 4 µg/mL
9 | BrCCCOc1ccc2c3[nH]c4ccccc4c3cc[n+]2c1.[O-][Cl+3]([O-])([O-])[O-] [Compound 30] | 6 µg/mL | 1.5 µg/mL | 4 µg/mL | 10 µg/mL | 6 µg/mL | 7.5 µg/mL | 2 µg/mL | 10 µg/mL | – | – | – | – | – | – | – | – | – | 6 µg/mL
10 | CCCCOc1ccc2c3[nH]c4ccccc4c3cc[n+]2c1.[Br-] [Compound 33] | 1.4 µg/mL | 2.4 µg/mL | 2 µg/mL | 1.6 µg/mL | 3 µg/mL | 5 µg/mL | <1 µg/mL | – | – | – | – | – | – | – | – | – | – | –
